Counter-ions that a name gives are not always drawn.
The compounds below were run against T1, human recombinant ENPP1 enzymes (Homo sapiens, UniProt P22413) (assay: ENPP1 Enzyme Assay with cGAMP Substrate (AMP-Glo)). Conditions: human recombinant ENPP1, cGAMP 5 μM, 37° C. 90 minutes, AMP-Glo luminescence; read-out: Enzymatic activity (IC50).
T1 construct: purchased R & D systems
T1 sequence (P22413 1-925): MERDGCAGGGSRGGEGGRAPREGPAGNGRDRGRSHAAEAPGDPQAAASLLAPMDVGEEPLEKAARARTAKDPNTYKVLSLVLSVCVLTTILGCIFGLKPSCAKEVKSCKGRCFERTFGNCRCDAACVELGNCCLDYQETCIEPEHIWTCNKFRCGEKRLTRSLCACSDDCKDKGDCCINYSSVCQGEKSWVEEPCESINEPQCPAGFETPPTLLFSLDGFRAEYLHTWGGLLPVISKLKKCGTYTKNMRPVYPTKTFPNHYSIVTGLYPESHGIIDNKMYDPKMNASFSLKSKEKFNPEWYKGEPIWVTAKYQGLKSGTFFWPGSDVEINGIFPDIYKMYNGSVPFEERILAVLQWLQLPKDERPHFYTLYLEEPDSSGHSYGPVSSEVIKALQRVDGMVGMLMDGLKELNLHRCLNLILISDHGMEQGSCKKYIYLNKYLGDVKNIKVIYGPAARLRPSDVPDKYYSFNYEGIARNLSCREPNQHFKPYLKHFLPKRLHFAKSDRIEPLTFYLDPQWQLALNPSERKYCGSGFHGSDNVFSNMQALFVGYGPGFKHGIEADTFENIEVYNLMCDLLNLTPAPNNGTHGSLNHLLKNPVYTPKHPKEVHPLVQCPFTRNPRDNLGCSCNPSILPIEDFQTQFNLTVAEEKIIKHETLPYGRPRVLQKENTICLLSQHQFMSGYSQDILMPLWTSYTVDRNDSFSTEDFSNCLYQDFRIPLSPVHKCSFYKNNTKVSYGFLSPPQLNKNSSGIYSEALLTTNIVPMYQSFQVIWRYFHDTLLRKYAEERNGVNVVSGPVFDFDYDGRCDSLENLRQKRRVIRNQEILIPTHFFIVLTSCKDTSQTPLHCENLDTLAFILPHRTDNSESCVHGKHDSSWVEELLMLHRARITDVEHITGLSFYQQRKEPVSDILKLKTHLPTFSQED
Type: biochemical
Description: ENPP1 hydrolyzes nucleotides or nucleotide derivatives to produce nucleoside-5′-monophosphate and pyrophosphate. In addition, ENPP1 hydrolyzes 2′,3′-cGAMP to produce 5′-adenosine monophosphate (AMP) and 5′-guanosine monophosphate (GMP). AMP produced from the reaction is measured using the AMP-Glo® kit (Promega). The AMP-Glo® kit contains two reagents. The first reagent terminates the AMP-producing enzymatic reaction, removes ATP and converts the produced AMP into ADP. The second reagent converts ADP into ATP which is used to generate luminescence in the luciferase reaction. The amount of luminescence measured is proportional to the amount of AMP produced by ENPP1.
The final reaction solution contains 50 mM Tris (pH 8.5) buffer, 250 mM NaCl, 0.5 mM CaCl2), 1 μM ZnCl2, 5% glycerol and 1% DMSO. Serially diluted ENPP1 inhibitors (typically in the range of 10 μM to 0.5 nM) were pre-stored with human recombinant ENPP1 enzymes (R & D systems) at 3 ng/reaction and room temperature (RT) for 5 to 10 minutes. The reaction was initiated by addition of cGAMP (at a final concentration of 5 μM) and reacted at 37° C. for 90 minutes. At the end of the reaction, 10 μl of the AMP-Glo first reagent was added to stop the reaction and the result was stored at room temperature for 1 hour. After storage, 20 μl of an AMP detection solution (a mixture of AMP-Glo II reagent and Kinase-Glo at a ratio of 1:100) was added and stored at room temperature for 1 hour. Luminescence signals were measured using a Victor® plate reader (Perkin Elmer). The maximal activity control (containing enzymes and substrates in the presence of 1% DMSO; MAX) and the minimal activity control (containing substrates and 1% DMSO; MIN) were evaluated simultaneously. In each experiment, serially diluted reference ENPP1 inhibitors were tested as well. IC50, indicating % residual activity versus compound concentration was determined by fitting inhibition curves using the 3-parameter analysis of GraphPad Prism® software. Serially diluted samples of one compound were tested two or more times and an average IC50 of each compound was calculated.
`COc1ccc2c(c1)nnn2C1CCNCC1` [Example 1, 5-methoxy-1-(piperidin-4-yl)-1H-benzo[d][1,2,3]triazole Hydrochloride] gave an IC50 greater than 10 µM.
`COc1ccc2c(c1)nnn2C1CCC(CN)CC1` (stereo not shown) [Example 2] gave an IC50 greater than 10 µM.
`COc1ccc2c(c1)nnn2CC1CCNCC1` [Example 3, 5-methoxy-1-(piperidin-4-ylmethyl)-1H-benzo[d][1,2,3]triazole] showed an IC50 of 1 to 10 µM.
`COc1ccc2c(c1)nnn2-c1ccc(N)cc1` [Example 4, 4-(5-methoxy-1H-benzo[d][1,2,3]triazol-1-yl)aniline Hydrochloride] was tested, and the IC50 was 1 to 10 µM.
With `NCc1ccc(-n2nnc3ccccc32)cc1` [Example 5, 4-(1H-benzo[d][1,2,3]triazol-1-yl)phenyl)methanamine Hydrochloride] the IC50 was less than 1 µM.
With `COc1cccc2c1nnn2-c1ccc(CN)cc1` [Example 6, 4-(4-methoxy-1H-benzo[d][1,2,3]triazol-1-yl)phenyl)methanamine Hydrochloride] the IC50 was greater than 10 µM.
In the case of `COc1ccc2nnn(-c3ccc(CN)cc3)c2c1` [Example 7, 4-(6-methoxy-1H-benzo[d][1,2,3]triazol-1-yl)phenyl)methanamine Hydrochloride], the IC50 is reported as greater than 10 µM.
Compound `COc1cccc2nnn(-c3ccc(CN)cc3)c12` [Example 8, 4-(7-methoxy-1H-benzo[d][1,2,3]triazol-1-yl)phenyl)methanamine Hydrochloride] has an IC50 greater than 10 µM.
Compound `COc1cc(OC)c2nnn(-c3ccc(CN)cc3)c2c1` [Example 9, 4-(4,6-dimethoxy-1H-benzo[d][1,2,3]triazol-1-yl)phenyl)methanamine Hydrochloride] has an IC50 of 1 to 10 µM.
`COc1cc2nnn(-c3ccc(CN)cc3)c2cc1OC` [Example 10, 4-(5,6-dimethoxy-1H-benzo[d][1,2,3]triazol-1-yl)phenyl)methanamine Hydrochloride] showed an IC50 of 1 to 10 µM.
`COc1ccc2c(c1)nnn2-c1cccc(CCN)c1` [Example 11, 2-(3-(5-methoxy-1H-benzo[d][1,2,3]triazol-1-yl)phenyl)ethan-1-amine Hydrochloride] gave an IC50 greater than 10 µM.
`CNCc1ccc(-n2nnc3cc(OC)ccc32)cc1` [Example 12, 1-(4-(5-methoxy-1H-benzo[d][1,2,3]triazol-1-yl)phenyl)-N-methylmethanamine Hydrochloride] was tested, and the IC50 was greater than 10 µM.
With `COc1ccc2c(c1)nnn2-c1ccc(CNC2CC2)cc1` [Example 13, N-(4-(5-methoxy-1H-benzo[d][1,2,3]triazol-1-yl)-benzyl)cyclopropanamine Hydrochloride] the IC50 was greater than 10 µM.
With `COc1ccc2c(c1)nnn2-c1ccc([C@H](C)N)cc1` [Example 14, (S)-1-(4-(5-methoxy-1H-benzo[d][1,2,3]triazol-1-yl)phenyl)ethan-1-amine Hydrochloride] the IC50 was less than 1 µM.
`COc1ccc2c(c1)nnn2-c1ccc(CN)cc1Cl` [Example 15, 3-chloro-4-(5-methoxy-1H-benzo[d][1,2,3]triazol-1-yl)phenyl)methanamine Hydrochloride] was tested, and the IC50 was less than 1 µM.
`COc1ccc2c(c1)nnn2-c1cc(F)c(CN)cc1F` [Example 17] was tested, and the IC50 was greater than 10 µM.
`COc1ccc2c(c1)nnn2-c1cc(F)c(CN)c(F)c1` [Example 18] showed an IC50 greater than 10 µM.
Compound `CCOc1ccc2c(c1)nnn2-c1ccc(CN)cc1F` [Example 19] has an IC50 greater than 10 µM.
`CC(C)Oc1ccc2c(c1)nnn2-c1ccc(CN)cc1F` [Example 20] gave an IC50 greater than 10 µM.
For `CC(F)(F)c1ccc2c(c1)nnn2-c1ccc(CN)cc1` [Example 21], the IC50 was greater than 10 µM.
With `CC(F)(F)c1ccc2c(c1)nnn2-c1ccc(CN)cc1F` [Example 22] the IC50 was greater than 10 µM.
With `NCc1ccc(-n2nnc3cc(OCF)ccc32)c(F)c1` [Example 23] the IC50 was greater than 10 µM.
`NCc1ccc(-n2nnc3cc(OC(F)F)ccc32)c(F)c1` [Example 24] was tested, and the IC50 was greater than 10 µM.
`COc1ccc2c(c1)nnn2-c1ccc2c(c1)CNCC2` [Example 25, 7-(5-methoxy-1H-benzo[d][1,2,3]triazol-1-yl)-1,2,3,4-tetrahydroisoquinoline Hydrochloride] was tested, and the IC50 was greater than 10 µM.
With `COc1ccc2c(c1)nnn2-c1cc2c(cc1F)CNCC2` [Example 26, 7-fluoro-6-(5-methoxy-1H-benzo[d][1,2,3]triazol-1-yl)-1,2,3,4-tetrahydroisoquinoline Hydrochloride] the IC50 was greater than 10 µM.
In the case of `COc1ccc2c(c1)nnn2-c1ccc2c(c1)CNCCC2` [Example 27, 8-(5-methoxy-1H-benzo[d][1,2,3]triazol-1-yl)-2,3,4,5-tetrahydro-1H-benzo[c]azepine Hydrochloride], the IC50 is reported as greater than 10 µM.
Compound `COc1cc2nnn(-c3cc(F)c(CN)cc3F)c2cc1OC` [Example 28] has an IC50 greater than 10 µM.
With `COc1cc2nnn(-c3ccc4c(c3)CNC4)c2cc1OC` [Example 29, 1-(isoindolin-5-yl)-5,6-dimethoxy-1H-benzo[d][1,2,3]triazole Hydrochloride] the IC50 was greater than 10 µM.
With `COc1ccc2c(c1)nnn2C12CC(CN)(C1)C2` [Example 30] the IC50 was greater than 10 µM.
`COc1ccc2c(c1)nnn2-c1cc(C)sc1CN` [Example 31, 3-(5-methoxy-1H-benzo[d][1,2,3]triazol-1-yl)-5-methylthiophen-2-yl)methanamine Hydrochloride] was tested, and the IC50 was greater than 10 µM.
`COc1ccc2c(c1)nnn2C1CCC(CNS(N)(=O)=O)C1` (stereo not shown) [Example 41, N-((3-(5-methoxy-1H-benzo[d][1,2,3]triazol-1-yl)cyclopentyl)methyl)sulfamide] showed an IC50 of less than 1 µM.
`COc1ccc2c(c1)nnn2C1CCN(S(N)(=O)=O)CC1` [Example 42, 4-(5-methoxy-1H-benzo[d][1,2,3]triazol-1-yl)piperidine-1-sulfonamide] showed an IC50 greater than 10 µM.
In the case of `COc1ccc2c(c1)nnn2C1CCC(CNS(N)(=O)=O)CC1` (stereo not shown) [Example 43, N-((4-(5-methoxy-1H-benzo[d][1,2,3]triazol-1-yl)cyclohexyl)methyl)sulfamide], the IC50 is reported as less than 1 µM.
`COc1ccc2c(c1)nnn2C1CCN(CCS(N)(=O)=O)CC1` [Example 44, 2-(4-(5-methoxy-1H-benzo[d][1,2,3]triazol-1-yl)piperidin-1-yl)ethane-1-sulfonamide] was tested, and the IC50 was less than 1 µM.
`COc1ccc2c(c1)nnn2CC1CCN(S(N)(=O)=O)CC1` [Example 45, 4-((5-methoxy-1H-benzo[d][1,2,3]triazol-1-yl)methyl)piperidine-1-sulfonamide] gave an IC50 of less than 1 µM.
`NS(=O)(=O)NCc1ccc(-n2nnc3ccccc32)cc1` [Example 46, N-(4-(1H-benzo[d][1,2,3]triazol-1-yl)benzyl)sulfamide] gave an IC50 of 1 to 10 µM.
`COc1ccc2c(c1)nnn2-c1cccc(NS(N)(=O)=O)c1` [Example 47, N-(3-(5-methoxy-1H-benzo[d][1,2,3]triazol-1-yl)phenyl)sulfamide] gave an IC50 of 1 to 10 µM.
`COc1ccc2c(c1)nnn2-c1ccc(NS(N)(=O)=O)cc1` [Example 48, N-(4-(5-methoxy-1H-benzo[d][1,2,3]triazol-1-yl)phenyl)sulfamide Hydrochloride] gave an IC50 of less than 1 µM.
`COc1ccc2c(c1)nnn2-c1cccc(CNS(N)(=O)=O)c1` [Example 49, N-(3-(5-methoxy-1H-benzo[d][1,2,3]triazol-1-yl)benzyl)sulfamide] was tested, and the IC50 was 1 to 10 µM.
With `COc1cccc2c1nnn2-c1ccc(CNS(N)(=O)=O)cc1` [Example 50, N-(4-(4-methoxy-1H-benzo[d][1,2,3]triazol-1-yl)benzyl)sulfamide] the IC50 was less than 1 µM.
